Data as given in ChEMBL document CHEMBL6178014, “Discovery and Administration Optimization of Novel Selective CDK9 Inhibitor, 1-7a-B1, for Improved Pharmacokinetics and Antitumor Efficacy In Vivo” (J Med Chem, 2025).

Assays:
CDK9/cyclin T1 = CDK9/cyclin T1 (Homo sapiens, UniProt P50750); assay: Inhibition of His-tagged full length human recombinant CDK9/cyclinT1 using KTFCGTPEYLAPEVRREPRILSEEEQEMFRDFDYIADWC as substrate incubated for 60 mins by ADP-Glo kinase assay; format: protein-complex assay
HCT-116 [1] = assay: Antiproliferative activity against human HCT-116 cells assessed as inhibition of cell growth incubated for 48 hrs by CCK8 assay; format: functional
HT-29 = assay: Antiproliferative activity against human HT-29 cells assessed as inhibition of cell growth incubated for 48 hrs by CCK8 assay; format: functional
[2] = Metabolic stability in human liver microsome assessed as half life at 100 uM pre-incubated with compound for 60 mins followed by NADPH addition and measured up to 60 mins by LC-MS/MS analysis; format: ADME; conditions: liver microsomes, time < 120 min
HCT-116 [3] = assay: Antiproliferative activity against human HCT-116 cells assessed as reduction in colony formation incubated for 14 days by crystal violet staining based analysis; format: functional, cell-based; conditions: dose 50-400 nM, time 14.0 day
CYP2C9 = CYP2C9 (Homo sapiens, UniProt P11712); assay: Inhibition of CYP2C9 in human liver microsome at 10 uM pre-incubated with compound for 10 mins in presence of NADPH-regenerating system by LC-MS/MS analysis relative to control; format: ADME; conditions: liver microsomes
CYP2C19 = CYP2C19 (Homo sapiens, UniProt P33261); assay: Inhibition of CYP2C19 in human liver microsome at 10 uM pre-incubated with compound for 10 mins in presence of NADPH-regenerating system by LC-MS/MS analysis relative to control; format: ADME; conditions: liver microsomes
[4] = Stability in human plasma assessed as half life at 100 uM measured up to 120 mins by LC-MS/MS analysis; format: ADME, cell-free
CYP1A2 = CYP1A2 (Homo sapiens, UniProt P05177); assay: Inhibition of CYP1A2 in human liver microsome at 10 uM pre-incubated with compound for 10 mins in presence of NADPH-regenerating system by LC-MS/MS analysis relative to control; format: ADME; conditions: liver microsomes
Chain of CYP1A2 (P05177 whole entry): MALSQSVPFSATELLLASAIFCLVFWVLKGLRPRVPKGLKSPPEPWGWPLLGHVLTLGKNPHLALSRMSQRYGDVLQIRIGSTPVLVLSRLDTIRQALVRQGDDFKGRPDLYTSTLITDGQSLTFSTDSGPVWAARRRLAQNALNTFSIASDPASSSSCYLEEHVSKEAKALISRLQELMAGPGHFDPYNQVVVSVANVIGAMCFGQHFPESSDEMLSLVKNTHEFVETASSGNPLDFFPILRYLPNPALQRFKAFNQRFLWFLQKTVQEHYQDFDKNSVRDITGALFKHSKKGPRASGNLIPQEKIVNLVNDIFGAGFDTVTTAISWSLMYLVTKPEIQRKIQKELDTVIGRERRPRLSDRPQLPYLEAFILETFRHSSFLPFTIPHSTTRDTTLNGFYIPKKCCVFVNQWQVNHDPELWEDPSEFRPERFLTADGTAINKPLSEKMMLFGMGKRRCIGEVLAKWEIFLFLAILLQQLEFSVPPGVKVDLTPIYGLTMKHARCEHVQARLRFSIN

Chain of CDK9/cyclin T1 (O60563 whole entry): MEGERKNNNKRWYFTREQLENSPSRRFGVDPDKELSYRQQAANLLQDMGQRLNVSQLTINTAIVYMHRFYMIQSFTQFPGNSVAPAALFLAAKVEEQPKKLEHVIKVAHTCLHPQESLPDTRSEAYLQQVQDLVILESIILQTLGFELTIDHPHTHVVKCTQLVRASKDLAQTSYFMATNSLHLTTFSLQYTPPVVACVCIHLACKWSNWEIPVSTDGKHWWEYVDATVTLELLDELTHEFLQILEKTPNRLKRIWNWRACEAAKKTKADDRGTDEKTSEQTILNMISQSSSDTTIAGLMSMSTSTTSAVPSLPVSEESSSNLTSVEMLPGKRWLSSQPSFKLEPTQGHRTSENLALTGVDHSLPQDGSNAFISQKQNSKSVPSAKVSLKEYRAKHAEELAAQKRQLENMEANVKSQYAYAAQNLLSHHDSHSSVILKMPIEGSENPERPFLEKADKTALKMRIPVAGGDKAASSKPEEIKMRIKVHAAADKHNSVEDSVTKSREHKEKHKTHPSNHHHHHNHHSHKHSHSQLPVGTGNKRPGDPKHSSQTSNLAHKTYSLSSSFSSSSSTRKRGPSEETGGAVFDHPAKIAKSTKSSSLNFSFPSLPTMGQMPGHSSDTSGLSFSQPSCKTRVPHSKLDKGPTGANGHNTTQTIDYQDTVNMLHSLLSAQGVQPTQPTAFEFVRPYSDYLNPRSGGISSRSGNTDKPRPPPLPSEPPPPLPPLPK
Chain of CDK9/cyclin T1 (P50750 whole entry): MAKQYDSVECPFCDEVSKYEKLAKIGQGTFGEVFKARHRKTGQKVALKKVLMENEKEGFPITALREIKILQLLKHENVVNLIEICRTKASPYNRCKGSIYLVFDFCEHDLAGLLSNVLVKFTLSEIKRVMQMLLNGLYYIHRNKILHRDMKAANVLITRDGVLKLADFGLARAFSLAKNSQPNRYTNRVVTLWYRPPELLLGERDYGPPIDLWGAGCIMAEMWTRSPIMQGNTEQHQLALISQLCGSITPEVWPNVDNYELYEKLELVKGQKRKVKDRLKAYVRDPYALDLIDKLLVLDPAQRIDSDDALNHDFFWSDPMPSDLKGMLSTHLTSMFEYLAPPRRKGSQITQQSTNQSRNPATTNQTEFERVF
Chain of CYP2C19 (P33261 whole entry): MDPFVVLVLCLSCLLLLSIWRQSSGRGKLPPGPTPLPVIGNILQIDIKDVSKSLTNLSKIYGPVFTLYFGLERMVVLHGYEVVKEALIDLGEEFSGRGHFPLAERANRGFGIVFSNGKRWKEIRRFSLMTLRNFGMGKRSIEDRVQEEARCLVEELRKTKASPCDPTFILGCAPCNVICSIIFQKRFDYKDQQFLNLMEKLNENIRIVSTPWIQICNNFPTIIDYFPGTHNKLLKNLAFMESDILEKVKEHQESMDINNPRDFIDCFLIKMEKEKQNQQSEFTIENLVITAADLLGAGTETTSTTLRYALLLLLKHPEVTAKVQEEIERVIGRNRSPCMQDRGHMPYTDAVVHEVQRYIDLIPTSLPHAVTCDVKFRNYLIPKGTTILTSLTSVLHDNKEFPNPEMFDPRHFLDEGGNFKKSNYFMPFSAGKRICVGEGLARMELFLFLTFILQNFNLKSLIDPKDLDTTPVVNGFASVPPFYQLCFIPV
Chain of CYP2C9 (P11712 whole entry): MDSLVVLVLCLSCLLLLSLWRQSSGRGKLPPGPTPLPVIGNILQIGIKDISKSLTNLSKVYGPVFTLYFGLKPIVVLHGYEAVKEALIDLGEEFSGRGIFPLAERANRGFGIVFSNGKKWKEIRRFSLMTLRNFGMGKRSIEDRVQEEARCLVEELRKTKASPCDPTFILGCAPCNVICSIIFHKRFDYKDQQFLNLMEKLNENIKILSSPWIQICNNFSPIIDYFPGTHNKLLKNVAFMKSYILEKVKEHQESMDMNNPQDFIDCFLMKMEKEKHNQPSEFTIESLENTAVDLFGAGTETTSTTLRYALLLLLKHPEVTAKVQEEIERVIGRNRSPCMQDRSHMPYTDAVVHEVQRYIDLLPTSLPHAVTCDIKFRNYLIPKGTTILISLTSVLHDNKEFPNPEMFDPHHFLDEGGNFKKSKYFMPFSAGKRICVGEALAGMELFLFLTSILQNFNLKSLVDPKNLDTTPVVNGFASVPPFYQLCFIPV

Row | SMILES | IC50 (CDK9/cyclin T1) | GI50 (HCT-116 [1]) | GI50 (HT-29) | also measured
1 | O=C(Nc1cccc(C(=O)N2CCOCC2)c1)Nc1cc(-c2ccc(F)c(F)c2)ccn1 | > 50 nM | > 1000 nM | > 1000 nM | 
2 | CC(C)Oc1cc(F)ccc1-c1ccnc(NC(=O)Nc2cccc(C(=O)N3CCOCC3)c2)c1 | 21 nM | 370 nM | 990 nM | 
3 | CCN1CCN(C(=O)c2ccc(NC(=O)Nc3cc(-c4ccc(F)cc4OC(C)C)ccn3)cc2)CC1 | > 50 nM | > 1000 nM | > 1000 nM | 
4 | O=C(O)Cc1ccccc1Nc1c(Cl)cccc1Cl [DICLOFENAC] |  |  |  | half-life at 100 µM [2]: 6.4 min
5 | CC(C)Oc1cc(F)ccc1-c1ccnc(NC(=O)Nc2ccc(C(=O)N3CCN(C)CC3)cc2)c1 | > 50 nM | > 1000 nM | > 1000 nM | 
6 | O=C(Nc1cccc(C(=O)N2CCOCC2)c1)Nc1cc(-c2ccc(F)cc2OCC2CCCC2)ccn1 | 59.1 nM | > 1000 nM | > 1000 nM | 
7 | Cc1ncc(-c2ccnc(Nc3ccc(S(C)(=O)=O)cc3)n2)n1C(C)C [AZD-5438] |  | 480 nM | 700 nM | Activity (HCT-116 [3]): Dose-dependent-effect
8 | O=C(Nc1cccc(C(=O)N2CCOCC2)c1)Nc1cc(-c2ccc(F)cc2)ccn1 | > 50 nM | > 1000 nM | > 1000 nM | 
9 | O=C(Nc1cccc(C(=O)N2CCOCC2)c1)Nc1cc(-c2cccc(Cl)c2)ccn1 | 35.9 nM | > 1000 nM | > 1000 nM | 
10 | CC(C)Oc1cc(F)ccc1-c1ccnc(NC(=O)Nc2cccc(C(=O)N3CCN(C(C)C)CC3)c2)c1 | > 50 nM | 960 nM | 670 nM | 
11 | CC(=O)N1CCN(C(=O)c2ccc(NC(=O)Nc3cc(-c4ccc(F)cc4OC(C)C)ccn3)cc2)CC1 | > 50 nM | > 1000 nM | > 1000 nM | 
12 | O=C(Nc1cccc(C(=O)N2CCOCC2)c1)Nc1cc(-c2cccc(F)c2)ccn1 | > 50 nM | > 1000 nM | > 1000 nM | 
13 | COc1ccc(-c2ccnc(NC(=O)Nc3cccc(C(=O)N4CCOCC4)c3)c2)cc1 | > 50 nM | > 1000 nM | > 1000 nM | 
14 | CC(=O)N1CCN(C(=O)c2cccc(NC(=O)Nc3cc(-c4ccc(F)cc4OC(C)C)ccn3)c2)CC1 | > 50 nM | > 1000 nM | > 1000 nM | 
15 | CCOc1cc(F)ccc1-c1ccnc(NC(=O)Nc2cccc(C(=O)N3CCOCC3)c2)c1 | 30.4 nM | > 1000 nM | > 1000 nM | 
16 | O=C(Nc1cccc(C(=O)N2CCOCC2)c1)Nc1cc(-c2cc(F)c(F)c(F)c2)ccn1 | > 50 nM | > 1000 nM | > 1000 nM | 
17 | CC(C)Oc1cc(F)ccc1-c1ccnc(NC(=O)Nc2cccc(C(=O)N3CCCN(C)CC3)c2)c1 | > 50 nM | > 1000 nM | > 1000 nM | 
18 | O=C(Nc1cccc(C(=O)N2CCOCC2)c1)Nc1cc(-c2ccccc2F)ccn1 | > 50 nM | > 1000 nM | > 1000 nM | 

Row | SMILES | IC50 (CDK9/cyclin T1) | GI50 (HCT-116 [1]) | GI50 (HT-29) | also measured
19 | Nc1ccc(S(=O)(=O)Nc2ccnn2-c2ccccc2)cc1 [SULFAPHENAZOLE] |  |  |  | inhibition at 10 µM (CYP2C9): 87.2%
20 | C[C@]12CC[C@H]3[C@@H](CCC4=CC(=O)CC[C@@]43C)[C@@H]1CC[C@@H]2O [TESTOSTERONE] |  |  |  | half-life at 100 µM [2]: 7.8 min
21 | CC(C)Oc1cc(F)ccc1-c1ccnc(NC(=O)Nc2ccc(C(=O)N3CCC(F)(F)CC3)cc2)c1 | > 50 nM | > 1000 nM | > 1000 nM | 
22 | CC(C)Oc1cc(F)ccc1-c1ccnc(NC(=O)Nc2cccc(C(=O)N3CCCC3)c2)c1 | 35.8 nM | > 1000 nM | 180 nM | 
23 | O=C(Nc1cccc(C(=O)N2CCOCC2)c1)Nc1cc(-c2ccc(Cl)cc2F)ccn1 | > 50 nM | > 1000 nM | > 1000 nM | 
24 | CC(C)Oc1cc(F)ccc1-c1ccnc(NC(=O)Nc2ccc(C(=O)N3CCOCC3)cc2)c1 | > 50 nM | > 1000 nM | > 1000 nM | 
25 | Cc1ccc(-c2ccnc(NC(=O)Nc3cccc(C(=O)N4CCOCC4)c3)c2)cc1 | > 50 nM | > 1000 nM | > 1000 nM | 
26 | CCC1(c2ccccc2)NC(=O)N(Cc2ccccc2)C1=O (single isomer, unassigned; (+)) |  |  |  | inhibition at 10 µM (CYP2C19): 88.3%
27 | O=C(Nc1cccc(C(=O)N2CCOCC2)c1)Nc1cc(-c2cc(F)cc(F)c2)ccn1 | > 50 nM | > 1000 nM | > 1000 nM | 
28 | CC(C)Oc1cc(F)ccc1-c1ccnc(NC(=O)Nc2ccc(C(=O)N3CCCC3)cc2)c1 | > 50 nM | > 1000 nM | > 1000 nM | 
29 | COc1ccccc1-c1ccnc(NC(=O)Nc2cccc(C(=O)N3CCOCC3)c2)c1 | 45.9 nM | > 1000 nM | > 1000 nM | 
30 | O=C(Nc1cccc(C(=O)N2CCOCC2)c1)Nc1cc(-c2ccc(F)cc2F)ccn1 | > 50 nM | > 1000 nM | > 1000 nM | 
31 | CC(C)[N+](C)(CCOC(=O)C1c2ccccc2Oc2ccccc21)C(C)C.[Br-] [PROPANTHELINE BROMIDE] |  |  |  | half-life at 100 µM [4]: 15.6 min
32 | CC(C)Oc1cc(F)ccc1-c1ccnc(NC(=O)Nc2ccc(C(=O)N3CCN(C(C)C)CC3)cc2)c1 | > 50 nM | > 1000 nM | > 1000 nM | 
33 | CCN1CCN(C(=O)c2cccc(NC(=O)Nc3cc(-c4ccc(F)cc4OC(C)C)ccn3)c2)CC1 | 16.5 nM | 200 nM | 570 nM | 
34 | O=C(Nc1cccc(C(=O)N2CCOCC2)c1)Nc1cc(-c2ccc(F)cc2OCC2CCCCC2)ccn1 | 88.1 nM | > 1000 nM | > 1000 nM | 
35 | COc1cc(F)ccc1-c1ccnc(NC(=O)Nc2cccc(C(=O)N3CCOCC3)c2)c1 | 27.8 nM | > 1000 nM | > 1000 nM | 
36 | O=c1cc(-c2ccccc2)oc2c1ccc1ccccc12 [ALPHA-NAPHTHOFLAVONE] |  |  |  | inhibition at 10 µM (CYP1A2): 88.4%
